According to patent US11529299B2, “Hair care compositions comprising a 2-pyridinol-n-oxide material and an iron chelator” (The Procter & Gamble Company, priority 2017, dated 2022):

Tests used:
Malassezia furfur = assay: Minimum inhibitory concentration (MIC), growth inhibition of Malassezia by culture optical density; assay type: cell-based; details: material alone, OD <= 20% of untreated control, 33° C., two days, M. Dixon medium pH 5.5, average of two replicates; for MIC: Malassezia furfur, 48 h
Procedure: To measure the growth inhibition properties of test materials against Malassezia, the following protocol is followed. The Malassezia furfur is cultured in 50 ml M. […] The pH is adjusted to 5.5 using 1N HCl. The media is autoclaved. Starting cultures are prepared by incubating freezer stocks with shaking at 33° C. The inoculum of Malassezia cells is 5.5×10^5 cfu/ml. Cells are incubated at 33° C. for two days. After the two day incubation optical density is read and background subtracted. MIC values are determined by averaging the results from two replicate experiments.

M.Furfur 7892 cells = assay: Modified Fractional Inhibitory Concentration (MFIC), anti-Malassezia activity of combinations; assay type: cell-based, Malassezia furfur; details: titrated from 400 ppm; for MFIC: Table 3, chelator as Material #2 combined with the 2-pyridinol-N-oxide material at 1/2 its MIC; for Modified Fractional Inhibitory Concentration (MFIC): lowest concentration of Material #2 inhibiting growth with Material #1 (1-hydroxy-4-methyl-6-(2,4,4-trimethylpentyl)-2-pyridone monoethanolamine salt) at 1/2 its MIC, 33° C., 2 days
Procedure: A Modified Fractional Inhibitory Concentration (MFIC) is used to determine the combinatorial effects of two chemicals on anti-Malassezia activity in a tissue culture setting. […] I. […] Low levels of M.Furfur 7892 cells are inoculated into each well of a 96 well plate. • 3. […] Plates are incubated at 33° C. for 2 days. • 6. Optical densities (OD's) are then determined using a spectrophotometer. II. […] Inhibition of growth is determined if the culture optical density is less than or equal to ⅕ (20%) of the culture optical density of the untreated control • 2.

[1] = from NIST Standard Reference Database 46; cited from earlier work

Minimum inhibitory concentration (MIC) (Malassezia furfur) [ppm] | SMILES | MIC (Malassezia furfur) [mg/L] | MFIC (M.Furfur 7892 cells) [ppm] | Log K1 (iron binding affinity) [1] | Modified Fractional Inhibitory Concentration (MFIC) (M.Furfur 7892 cells) [ppm]
– | Cc1cc(CC(C)CC(C)(C)C)n(O)c(=O)c1.NCCO (centres unmarked) [1-hydroxy-4-methyl-6-(2,4,4-trimethylpentyl)-2-pyridone monoethanolamine salt] | 25 | – | – | –
– | O=C(O)CC(O)(CC(=O)O)C(=O)O [Citric Acid] | – | >400 | 11 | –
– | CC(=O)N(O)CCCCCNC(=O)CCC(=O)N(O)CCCCCNC(=O)CCC(=O)N(O)CCCCCN [Desferrioxamine] | > 400 | 5 | 31 | 5
>400 | O=C(O)CN(CCN(CC(=O)O)CC(=O)O)CCN(CC(=O)O)CC(=O)O [Diethylenetriaminepentaacetic acid] | – | 37 | 28 | 37
>400 | O=P(O)(O)CN(CCN(CP(=O)(O)O)CP(=O)(O)O)CCN(CP(=O)(O)O)CP(=O)(O)O [Diethylenetriaminepentakis(methylenephosphonic acid)] | – | 50 | 23 | 50
– | CC(C(=O)O)N(CC(=O)O)CC(=O)O (centres unmarked) [Methylglycine diacetic acid (MGDA), Methylglycine diacetic acid] | – | >400 | 16 | –
